Tests used:
[1] = test system: Mus musculus; assay: Depletion of norepinephrine in mouse brain at 50 ug administered intracranially at 24 hrs interval on three successive days measured 24 hrs post last dose relative to control; type: functional
[2] = test system: Mus musculus; assay: Depletion of dopamine in mouse brain at 50 ug administered intracranially at 24 hrs interval on three successive days measured 24 hrs post last dose relative to control; type: functional

Row | SMILES | Activity [1] | Activity [2]
1 | NCCc1cc(O)c(O)cc1N | 34% | 106%
2 | CN(C)CCc1cc(O)c(O)cc1N | 88% | 94%
3 | CC(C)NCCc1cc(O)c(O)cc1N | 81% | –
4 | Br.CNCCc1cc(O)c(O)cc1N | 66% | –
